Patent US20260159519A1, “IMIDAZOPYRIDAZINE SUBSTITUTED BENZENE RING DERIVATIVE, PREPARATION METHOD, PHARMACEUTICAL COMPOSITION AND USE” (SHANGHAI SIMR BIOTECHNOLOGY CO., LTD., priority 2022, published 2026)

Tests used:
[1] = test system: Chinese hamster ovary cells (CHO-WBL cells); assay: In vitro micronucleus assay; assay type: cell-based; conditions: 3-hour treatment with S9, 3-hour and 24-hour treatment without S9; overall judgment
Text: The experimental design is based on the experimental purpose and follows the following experimental design guidelines: • (1) OECD Guidelines for the Testing of Chemicals 487, In Vitro Mammalian Cell Micronucleus Test, revised in 2016; • (2) ICH S2 (R1): Guideline on Genotoxicity Testing and Data Interpretation for Pharmaceuticals Intended for Human Use, validated in November 2011.
Experimental system and selection rationale: Chinese hamster ovary cells (CHO-WBL cells) were used as an experimental system in this experiment. The cell line has a karyotype containing 21 chromosomes and a growth cycle of 12 to 13 hours. CHO-WBL cells were originally derived from Dr. S. Wolff at the University of California in San Francisco, USA, then cloned in the laboratory of Dr. A. Bloom at Columbia University in New York, and cloned again by Dr. S. Galloway at Litton Bionetics Laboratory in Maryland. The cell stock solution was stored in liquid nitrogen. The karyotype of each batch of cell stock solution was identified, and tests confirmed that it was free from mycoplasma contamination. The number of passages after cell cloning will not exceed 15. Chinese hamster ovary cells were chosen because the cell line is recommended for use in OECD Guidelines for the Testing of Chemicals 487 and has been proven to be sensitive to a variety of clastogens/aneugens (Marilyn J. et al., 2006).
Medium and cell growth conditions: Chinese hamster ovary cells were cultured in McCoy's 5A complete medium (McCoy's 5A complete medium supplemented with 10 vt % fetal bovine serum, 2 mM GlutaMAX™ medium, 100 units/mL penicillin, and 100 μg/mL streptomycin), and grown in a standard environment (a high-humidity incubator with a temperature of 37° C. and a CO2 concentration of 5%). The day before administration, CHO-WBL cells in exponential growth phase were inoculated onto an eight-well cell culture slide at a density of 8×10^3 cells/400 μL McCoy's 5A complete medium/well.
Metabolic activation system: The in vitro metabolic activation system (Maron and Ames, 1983) contains a rat liver microsomal homogenate induced by β-naphthoflavone and phenobarbital (referred to as S9) and an NADPH-generating system (i.e., NADP disodium and isocitric acid trisodium). S9 was purchased from CHI Scientific, Inc. and stored in a −75° C. refrigerator prior to use. Preparation method for S9 homogenate: Male Sprague Dawley rats were intraperitoneally injected with a single dose of p-naphthoflavone and phenobarbital, followed by material preparation.
Preparation of S9 metabolic activation system: NADP disodium salt and isocitric acid trisodium salt were first dissolved in serum-free medium to prepare a core solution, which was then filtered through a 0.22 µm filter to sterilize. Immediately before use, the S9 homogenate was thawed, and the components of the S9 metabolic activation system were mixed in the proportions shown in Table 2 below.
Dose exploration experiment: In the dose exploration experiment, 8 administration concentrations were established in each administration treatment series. For each concentration of the test substance, 1 well of cells was set up. According to the ICH S2 (R1) guidelines, when not limited by the solubility of the test substance in the solvent/medium or the cytotoxicity of the test substance, the recommended maximum concentration is 1 mM or 0.5 mg/mL, whichever is lower. However, when limited by solubility, the test maximum concentration is the minimum concentration at which a small amount of precipitate is visible in the medium under the microscope. To ensure that the upper limit of solubility in the medium can be reached, up to 4 concentrations with visible precipitate can be tested.

[2] = target: T1, human α1-GABAA receptor (α1-GABAAR-HEK293 cells) (Homo sapiens, UniProt P14867+P18507); assay: Whole-cell patch-clamp electrophysiology, positive allosteric modulatory activity on α1-GABAA receptor; assay type: cell-based; conditions: read-out: α1-GABAA positive allosteric modulatory activity
T1 construct: expressed in transfected cells

[3] = target: T2, human α2-GABAA receptor (α2-GABAAR-HEK293 cells) (Homo sapiens, UniProt P18507+P47869); assay: Whole-cell patch-clamp electrophysiology, positive allosteric modulatory activity on α2-GABAA receptor; assay type: cell-based; conditions: read-out: α2-GABAA positive allosteric modulatory activity
T2 construct: expressed in transfected cells

[4] = target: T3, human α2-GABAA receptor (BZD site, membrane protein of HEK293 cells) (Homo sapiens, UniProt P18507+P47869); assay: Radioligand competitive binding assay (3H-flunitrazepam) at the BZD site of the α2-GABAA receptor; conditions: competition with 1 nM 3H-flunitrazepam; Ki calculated from IC50; read-out: α2 Ki
T3 construct: expressed in transfected cells

| SMILES | Results of in vitro micronucleus assay [1] | activation at 0.1 µM [2] [%] | activation at 0.1 µM [3] [%] | Ki [4] [nM] |
| --- | --- | --- | --- | --- |
| CCn1cnc2c(-c3ccc(F)c(-c4ccc(S(=O)(=O)CC)cc4OC)c3)cnnc21 [CVL-865, reference compound] | Positive | 100 | 100 |  |
| CCn1cnc2c(-c3ccc(F)c(-c4cc5cccnc5cc4OC)c3)cnnc21 [Example 139, 6-(5-(7-Ethyl-7H-imidazo[4,5-c]pyridazin-4-yl)-2-fluorophenyl)-7-methoxyquinoline] |  | 35 | 122 | 13.2 |
| CCn1cnc2c(-c3ccc(F)c(-c4cc5cn(C)nc5cc4OC)c3)cnnc21 [Example 141, 7-Ethyl-4-(4-fluoro-3-(6-methoxy-2-methyl-2H-indazol-5-yl)phenyl)-7H-imidazo[4,5-c]pyridazine] |  | 37 | 105 | 9.15 |
| CCn1cnc2c(-c3ccc(F)c(-c4cc5cnn(C)c5cc4OC)c3)cnnc21 [Example 142, 7-Ethyl-4-(4-fluoro-3-(6-methoxy-1-methyl-1H-indazol-5-yl)phenyl)-7H-imidazo[4,5-c]pyridazine] |  | 36 | 99 | 4.54 |
| CCn1cnc2c(-c3ccc(F)c(-c4ccc5c(nnn5C5CCOC5)c4COC)c3)cnnc21 (stereo not drawn) [Example 157, 7-Ethyl-4-(4-fluoro-3-(4-(methoxymethyl)-1-(tetrahydrofuran-3-yl)-1H-benzo[d][1,2,3]triazol-5-yl)phenyl)-7H-imidazo[4,5-c]pyridazine] |  | 50 | 99 | 23.3 |
| CCn1cnc2c(-c3ccc(F)c(-c4cc5cncnc5cc4OC)c3)cnnc21 [Example 164, 6-(5-(7-Ethyl-7H-imidazo[4,5-c]pyridazin-4-yl)-2-fluorophenyl)-7-methoxyquinazoline] |  | 29 | 122 | 9.24 |
| CCn1cnc2c(-c3ccc(F)c(-c4cc5cc(COC)c(=O)n(C)c5cc4OC)c3)cnnc21 [Example 166, 6-(5-(7-Ethyl-7H-imidazo[4,5-c]pyridazin-4-yl)-2-fluorophenyl)-7-methoxy-3-(methoxymethyl)-1-methylquinolin-2(1H)-one] |  | 12 | 128 | 2.39 |
| CCN1C(=O)Cc2cc(-c3cc(-c4cnnc5c4ncn5CC)ccc3F)c(OC)cc21 [Example 167, 1-Ethyl-5-(5-(7-ethyl-7H-imidazo[4,5-c]pyridazin-4-yl)-2-fluorophenyl)-6-methoxyindol-2-one] |  | 35 | 125 | 13.9 |
